# Data: patent US6824928B2, “Organic borate compounds and the nonaqueous electrolytes and lithium secondary batteries using the compounds” (Hitachi, Ltd., priority 2000, dated 2004)
# Read-outs that look alike come from different tables or passages of the source.
# Experiments:
# [1] = for improvement of electroconductivity by factor: solvent A, versus lithium bis-salicylate borate (comparative example 1)
# [2] = solvent B: HFE7100/DMC 80:20; salt dissolved to 0.1 M
# [3] = Electroconductivity in fluorinated solvent B (HFE7100/DMC 80:20); format: physicochemical; conditions: for electroconductivity (result in words) / concentration at which maximum electroconductivity was obtained / maximum electroconductivity: solvent B: HFE7100/DMC 80:20; for improvement of electroconductivity: solvent B, versus LiN (SO2CF3)2
# [4] = 1 M in PC; platinum working electrode, lithium counter/reference; sweep 10 mV/sec
# Text: By use of these nonaqueous electrolytes, the respective oxidation decomposition potential values have been compared using the method described below.
# [5] = 1 M in PC; versus comparative example 8
Molecule,concentration at which maximum electroconductivity was obtained [3],maximum electroconductivity [3],concentration at which maximum electroconductivity was obtained ([1]; solvent A: PC/DMC 1:2),maximum electroconductivity ([1]; solvent A: PC/DMC 1:2),improvement of electroconductivity by factor [1],potential from which significant changes in oxidation current are observed (oxidation decomposition potential) [4],also measured
"CC(=O)O[B-](OC(C)=O)(OC(C)=O)OC(C)=O.[Li+] [LB4, Lithium Tetrakis (Acetate) Borate]",,,,,,,"electroconductivity of the nonaqueous electrolyte ([1]; solvent A: PC/DMC 1:2, at the dissolved concentration (about 0.1 M)): 0.02 mS/cm"
"F[B-](F)(F)F.[Li+] [LiBF4, lithium tetrafluoroborate, reference compound]",,,,,,,phase behaviour of the solution [2]: the phase of the solvent has separated into two layers; electroconductivity (result in words) [3]: no electroconductivity has been measurable
lithium bis-benzenediolate [reference compound],,,,,,,electroconductivity (result in words) [3]: no electroconductivity has been measurable
"O=C(O[B-](OC(=O)C(F)(F)F)(OC(=O)C(F)(F)F)OC(=O)C(F)(F)F)C(F)(F)F.[Li+] [LB1, Lithium Tetrakis (Trifluoroacetate) Borate]",0.8 M,1.55 mS/cm,0.8 M,7.8 mS/cm,up to 18,6.7 V,improvement of electroconductivity [3]: 2.2 times
Lithium Tetrakis (Pentafluoropropanoate) Borate [LB2],0.6 M,1.7 mS/cm,0.6 M,5.8 mS/cm,up to 13.4,6.5 V,improvement of electroconductivity [3]: 2.4 times
Lithium Tetrakis (Trichloroacetate) Borate [LB3],,,0.5 M,4.3 mS/cm,up to 10,6.4 V,
Tetraethyl Ammonium Tetrakis (Trifluoroacetate) Borate [AB1],,,,,,,increase of potential window at the oxidation side [5]: 0.5 V
"O=S(=O)([N-]S(=O)(=O)C(F)(F)F)C(F)(F)F.[Li+] [LiN (SO2CF3)2, lithium bis-(trifluoromethanesulfonyl)imide, reference compound]",1 M,0.69 mS/cm,,,,5.8 V,
